The values below come from patent US9540325B2, “N1-cyclic amine-N5-substituted phenyl biguanide derivatives, methods of preparing the same and pharmaceutical composition comprising the same” (Immunomet Therapeutics, Inc., priority 2011, dated 2017).

In one series the test system is HCT116 cells. The series is described as follows: Measurement of effect of inhibiting cancer cell proliferation (MTT). Format: cell-based, human. Particulars: Homo sapiens; for inhibition at 100 µM: HCT-116, 100 μM, 48 hours, read-out: Cell Growth Inhibition (%) at 100 μM; for GI50: HCT-116, 48 h. From the text:
HCT116 cells derived from human colorectal cancer (commercially available from the Korean Cell Line Bank) were used, and the effect of inhibiting cancer cell proliferation of the biguanide derivative was confirmed by measuring the concentration value (cell growth inhibition concentration, GIC50) at which cell growth was inhibited by 50% using a 3-(4,5-dimethylthiazol-2-yl)-2,5-diphenyltetrazolium bromide (MTT) reagent.
First, HCT116 cells were put on a 96-well plate and cultured in a DMEM medium containing 10% fetal bovine serum for 16 hours so that the cellcount in each well was approximately 5,000. Subsequently, to obtain the GIC50 value of each compound, culture media were treated with 100 μM, 25 μM, 6.25 μM, 1.56 μM or 0.39 μM of the compound, and then cultured for 48 hours. Metformin hydrochloride was used as the control, and the culture media were treated with 25, 12.5, 2.5, 0.5, 0.1 mM metformin hydrochloride, and then tested in the same manner as described in the derivatives synthesized in the examples. In order to determine whether the cells survived after treatment with the compounds, MTT was added to the culture media which were then cultured for another 3 hours. Formed formazane crystals were dissolved using dimethyl sulfoxide (DMSO), and the absorbance of the resulting solution was measured at 560 nm. After the 48-hour culture, […] was indicated as cell viability (%) according to each treated concentration. A cell viability curve graph was plotted and the concentration (GIC50) value of the compound at which the growth was inhibited by 50% was calculated to confirm the inhibition effect of cancer cell proliferation. Also, the cell growth viability (%) when the concentration of the treated biguanide derivative and the metformin hydrochloride as the control were 100 μM was shown.

A further series deals with AMPKα. In words: Measurement of AMPK activation effect (AMPKα Thr172 phosphorylation immunoassay) in MCF7 cells. In kind it is cell-based, human. Particulars: 24 hours; for AMPK activation effect at 10 μM (%) / AMPK activation effect at 50 μM (%): relative to untreated cells; for AMPK activation effect AC150: concentration at which AMPK activation reached 150%. How it is done: MCF7 cells derived from human breast cancer cells (commercially available from the Korean Cell Line Bank) were used, and the AMPK activation effect of the biguanide derivative was confirmed using an AMPKα immunoassay kit (Invitrogen, Catalog No. KHO0651).
MCF7 cells were cultured in a DMEM medium supplemented with 10% fetal bovine serum. Thereafter, the cultured MCF7 cells were put into a 6-well plate with approximately 5×10^5 cells per well and cultured in an incubator supplied with 5% CO2. Culture media were treated with the derivatives synthesized in the examples at contents of 5, 10 and 50 μM, and then cultured for 24 hours. Metformin hydrochloride was used as the control, and the culture media were treated with 0.05, 0.5, 1, 2, 5 and 10 mM metformin hydrochloride, and then tested in the same manner as described in the derivatives synthesized in the examples. Subsequently, the cells were lysed according to a method presented in the operation manual of the AMPKα immunoassay kit, and 20 μg of a cell lysate was then yielded through protein assay. Thereafter, the AMPK activation effect was obtained by determining the degree of phosphorylation of 172nd threonine residue (Thr172) of the AMPKα from the cell lysate according to the method presented in the operation manual of the AMPKα immunoassay kit. […] A curve graph showing AMPK activation according to the concentration of the treated compounds was plotted based on the obtained AMPKα activation results, the concentration (activation concentration 150, AC150) value of the compound whose AMPK activation reached 150% was calculated using a GraphPad Prism 5.0 program, and the degrees of AMPK activation were obtained when concentrations of the treated biguanide derivatives were 10 μM and 50 μM and the metformin hydrochloride was 50 μM

Where only a bound is given, the exact number is not on record here.

The melting point is the temperature of the solid-liquid transition. What is called inhibition is the change of the read-out against control, counted positive when it falls. A word on the GI50: it is the concentration that inhibits growth by half. Consider `Cl.N=C(NC(=N)N1CCC1)Nc1ccc(OC(F)(F)F)cc1` [Example 31, N1-azetidine-N5-(4-trifluoromethoxy)phenyl biguanide hydrochloride], for which the melting point was 257 to 259 °C. In the series on HCT116 cells, the inhibition at 100 µM was determined as 96.5% and the GI50 came out at 22.9 µM. Further, in the series with AMPKα, the “AMPK activation effect at 10 μM (%)” value worked out at 145%, the “AMPK activation effect at 50 μM (%)” value is given as 232% and the “AMPK activation effect AC150” value came out at 15.3 µM.

`Cl.N=C(NC(=N)N1CCOCC1)Nc1ccc(OC(F)(F)F)cc1` [Example 34, N1-morpholine-N5-(4-trifluoromethoxy)phenyl biguanide hydrochloride] registered a melting point of 263 to 264 °C. For the same compound, in the series with HCT116 cells, the inhibition at 100 µM was determined as 98% and the GI50 turned out to be 47.3 µM. In the series on AMPKα, the “AMPK activation effect at 10 μM (%)” value was found to be 121%, the “AMPK activation effect at 50 μM (%)” value was found to be 168% and the “AMPK activation effect AC150” value amounted to 33.7 µM.

In turn, `CN1CCN(C(=N)NC(=N)Nc2ccc(OC(F)(F)F)cc2)CC1.Cl` [Example 35, N1-(4-methyl)piperazine-N5-(4-trifluoromethoxy)phenyl biguanide hydrochloride] came in with a melting point of 258 to 259 °C. Also, in the series on HCT116 cells, the inhibition at 100 µM stood at 76.5% and the GI50 came to 46.7 µM. Besides, in the series on AMPKα, the “AMPK activation effect at 10 μM (%)” value is listed as 207%, the “AMPK activation effect at 50 μM (%)” value worked out at 542% and the “AMPK activation effect AC150” value came out at 5.0 µM.

`Cl.N=C(NC(=N)N1CCCCC1)Nc1cccc(N)c1` [Example 36, N1-piperidine-N5-(3-amino)phenyl biguanide hydrochloride] registered a melting point of 220 to 222 °C. Also, in the series with HCT116 cells, the inhibition at 100 µM was 43.6% and the GI50 is more than 100 µM. Besides, in the series with AMPKα, the “AMPK activation effect at 10 μM (%)” value is recorded as 62%, the “AMPK activation effect at 50 μM (%)” value is on record as 175% and the “AMPK activation effect AC150” value came out at 36.8 µM.

Compound `CN(C)c1ccc(NC(=N)NC(=N)N2CCCCC2)cc1.Cl` [Example 37, N1-piperidine-N5-(4-dimethylamino)phenyl biguanide hydrochloride] returned a melting point of 253 to 255 °C. Besides, in the series on HCT116 cells, the inhibition at 100 µM was 32.2% and the GI50 is more than 100 µM. In addition, in the series on AMPKα, the “AMPK activation effect at 10 μM (%)” value turned out to be 123%, the “AMPK activation effect at 50 μM (%)” value was 286% and the “AMPK activation effect AC150” value came to 13.9 µM.

Regarding `CC(=O)Nc1ccc(NC(=N)NC(=N)N2CCCCC2)cc1.Cl` [Example 38, N1-piperidine-N5-(4-acetamide)phenyl biguanide hydrochloride], the melting point is 258 to 260 °C. Moreover, in the series with HCT116 cells, the inhibition at 100 µM worked out at 0% and the GI50 was more than 100 µM. Besides, in the series on AMPKα, the “AMPK activation effect at 10 μM (%)” value is 94%, the “AMPK activation effect at 50 μM (%)” value worked out at 144% and the “AMPK activation effect AC150” value is more than 50 µM.

`CC(=O)Nc1cccc(NC(=N)NC(=N)N2CCCCC2)c1.Cl` [Example 39, N1-piperidine-N5-(3-acetamide)phenyl biguanide hydrochloride]: the melting point was in the range of 265 to 267 °C. Besides, in the series with HCT116 cells, the inhibition at 100 µM came out at 25.5% and the GI50 is more than 100 µM. Further, in the series with AMPKα, the “AMPK activation effect at 10 μM (%)” value came out at 100%, the “AMPK activation effect at 50 μM (%)” value is reported as 145% and the “AMPK activation effect AC150” value was more than 50 µM.

`Cl.N=C(NC(=N)N1CCCCC1)Nc1ccc(-c2nnn[nH]2)cc1` [Example 40, N1-piperidine-N5-(4-(1H-tetrazole-5-yl))phenyl biguanide hydrochloride] returned a melting point of 241 to 242 °C. In the series on HCT116 cells, the inhibition at 100 µM was 0.9% and the GI50 is more than 100 µM. In the series with AMPKα, the “AMPK activation effect at 10 μM (%)” value was found to be 41%, the “AMPK activation effect at 50 μM (%)” value was 55% and the “AMPK activation effect AC150” value is more than 50 µM.

`CS(=O)(=O)Nc1cccc(NC(=N)NC(=N)N2CCCCC2)c1.Cl` [Example 41, N1-piperidine-N5-(3-methylsulfonamide)phenyl biguanide hydrochloride] returned a melting point of 251 to 253 °C. Also, in the series on HCT116 cells, the inhibition at 100 µM worked out at 18.8% and the GI50 is more than 100 µM. Moreover, in the series with AMPKα, the “AMPK activation effect at 10 μM (%)” value was found to be 86%, the “AMPK activation effect at 50 μM (%)” value came out at 125% and the “AMPK activation effect AC150” value was more than 50 µM.

Turning to `CSc1ccc(NC(=N)NC(=N)N2CCCCC2)cc1.Cl` [Example 43, N1-piperidine-N5-(4-methylthio)phenyl biguanide hydrochloride], the melting point was 264 to 265 °C. Further, in the series with HCT116 cells, the inhibition at 100 µM worked out at 98% and growth was halved (GI50) at 37.1 µM. In the series with AMPKα, the “AMPK activation effect at 10 μM (%)” value is 239%, the “AMPK activation effect at 50 μM (%)” value was found to be 547% and the “AMPK activation effect AC150” value amounted to 4.1 µM.

`COc1cc(NC(=N)NC(=N)N2CCCCC2)cc(OC)c1.Cl` [Example 45, N1-piperidine-N5-(3,5-dimethoxy)phenyl biguanide hydrochloride] gave a melting point of 234 to 236 °C. For the same compound, in the series on HCT116 cells, the inhibition at 100 µM was determined as 41.3% and the GI50 was more than 100 µM. Further, in the series with AMPKα, the “AMPK activation effect at 10 μM (%)” value stood at 232%, the “AMPK activation effect at 50 μM (%)” value was found to be 249% and the “AMPK activation effect AC150” value was found to be 2.7 µM.

In turn, `Cl.N=C(NC(=N)N1CCCCC1)Nc1ccc(F)c(C(F)(F)F)c1` [Example 46, N1-piperidine-N5-(4-fluoro-3-trifluoromethyl)phenyl biguanide hydrochloride] registered a melting point of 269 to 270 °C. Also, in the series with HCT116 cells, the inhibition at 100 µM amounted to 97% and growth was halved (GI50) at 5.6 µM. Moreover, in the series with AMPKα, the “AMPK activation effect at 10 μM (%)” value stood at 261% and the “AMPK activation effect AC150” value was 1.3 µM.

Take `Cl.N=C(NC(=N)N1CCCCC1)Nc1ccc(Cl)c(C(F)(F)F)c1` [Example 47, N1-piperidine-N5-(4-chloro-3-trifluoromethyl)phenyl biguanide hydrochloride]: the melting point was in the range of 269 to 270 °C. In the series on HCT116 cells, the inhibition at 100 µM is 96.7% and the GI50 worked out at 1.9 µM. Further, in the series with AMPKα, the “AMPK activation effect at 10 μM (%)” value is on record as 169% and the “AMPK activation effect AC150” value came out at 7.3 µM.

As for `Cl.N=C(NC(=N)N1CCCCC1)Nc1ccc(F)c(OC(F)(F)F)c1` [Example 50, N1-piperidine-N5-(4-fluoro-3-trifluoromethoxy)phenyl biguanide hydrochloride], the melting point was 260 to 261 °C. Further, in the series with HCT116 cells, the inhibition at 100 µM was 97% and the GI50 was 3.9 µM. In the series on AMPKα, the “AMPK activation effect at 10 μM (%)” value came to 127% and the “AMPK activation effect AC150” value is more than 50 µM.

Compound `Cl.N=C(NC(=N)N1CCCCC1)Nc1ccc(Cl)c(OC(F)(F)F)c1` [Example 51, N1-piperidine-N5-(4-chloro-3-trifluoromethoxy)phenyl biguanide hydrochloride] came in with a melting point of 251 to 252 °C. Moreover, in the series with HCT116 cells, the inhibition at 100 µM was 96.3% and the GI50 is 1.9 µM. In the series on AMPKα, the “AMPK activation effect at 10 μM (%)” value was 160% and the “AMPK activation effect AC150” value turned out to be 7.8 µM.

With `Cl.N=C(NC(=N)N1CCC1)Nc1ccc(OC(F)(F)F)c(F)c1` [Example 52, N1-azetidine-N5-(3-fluoro-4-trifluoromethoxy)phenyl biguanide hydrochloride], the melting point fell in the range of 260 to 261 °C. In addition, in the series with HCT116 cells, the inhibition at 100 µM worked out at 101% and growth was halved (GI50) at 19.8 µM. For the same compound, in the series on AMPKα, the “AMPK activation effect at 10 μM (%)” value worked out at 265%, the “AMPK activation effect at 50 μM (%)” value is listed as 740% and the “AMPK activation effect AC150” value is 3.3 µM.
